Test results published in patent US6982260B1, “Quinazolines and their use for inhibiting cyclin-dependent kinase enzymes” (Warner-Lambert Company, priority 1999, dated 2006).
Like-named read-outs stand apart in the source and are kept apart here.

How the values were obtained:
cdc2/cyclinB = cdc2/cyclinB (Homo sapiens, UniProt P06493); assay: cdc2/cyclinB kinase assay (Table 1, CdkB); format: biochemical; settings: 32P incorporation into retinoblastoma, 25° C., 15 minutes
Procedure: (§1) All components except the ATP were added to the wells, and the plate was placed on a plate mixer for 2 minutes. The reaction was begun by addition of [^32P]ATP, and the plate was incubated at 25° C. for 15 minutes. The reaction was terminated by addition of 0.1 mL of 20% TCA. The plate was kept at 4° C. for at least 1 hour to allow the substrate to precipitate. The wells were then washed five times with 0.2 mL of 10% TCA and ^32P incorporation determined with a beta plate counter (Wallac Inc., Gaithersburg, Md.).

cdk4/D = cdk4/D (Homo sapiens, UniProt P11802); assay: Cyclin-Dependent Kinase 4 (cdk4) Assay; format: biochemical
cdk4/D, sequence (P11802 whole entry, species assumed): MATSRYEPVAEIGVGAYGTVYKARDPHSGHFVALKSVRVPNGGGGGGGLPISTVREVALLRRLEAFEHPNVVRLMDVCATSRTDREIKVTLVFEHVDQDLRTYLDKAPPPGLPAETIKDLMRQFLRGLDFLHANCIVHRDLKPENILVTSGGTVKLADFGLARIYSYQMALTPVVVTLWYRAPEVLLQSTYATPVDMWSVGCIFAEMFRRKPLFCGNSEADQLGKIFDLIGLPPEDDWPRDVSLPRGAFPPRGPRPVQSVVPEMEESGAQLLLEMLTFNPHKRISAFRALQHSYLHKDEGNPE
cdk4/D, sequence (P24385 whole entry partner, species assumed): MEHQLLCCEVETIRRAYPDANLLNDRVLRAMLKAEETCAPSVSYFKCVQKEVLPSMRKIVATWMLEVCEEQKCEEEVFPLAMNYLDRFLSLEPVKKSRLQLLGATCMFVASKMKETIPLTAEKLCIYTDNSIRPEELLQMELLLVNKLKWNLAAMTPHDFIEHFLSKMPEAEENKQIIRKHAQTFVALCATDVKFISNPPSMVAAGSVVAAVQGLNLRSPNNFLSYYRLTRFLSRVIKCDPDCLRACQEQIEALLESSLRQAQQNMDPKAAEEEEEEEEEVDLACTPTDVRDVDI
Procedure: As noted above, the compounds of this invention are potent inhibitors of cyclin-dependent kinases, and accordingly, are useful in treating and preventing neurodegenerative disorders, atherosclerosis, and other cell proliferative disorders like cancer. […] A typical assay, for instance, measures inhibitory activity against the cyclin D dependent kinase 4 enzyme (cdk4/D). […] The cdk4 assay was carried out as follows.
Cyclin-Dependent Kinase 4 (cdk4) Assay
Enzyme assays for IC50 determinations (Table 1 above) and kinetic evaluation were performed in 96 well filter plates (Millipore MADVN6550). The total volume was 0.1 mL containing a final concentration of 20 mM TRIS (tris[hydroxymethyl]aminomethane), at pH 7.4, 50 mM NaCl, 1 mM dithiothreitol, 10 mM MgCl2, 25 μM ATP containing 0.25 μCi of [^32P]ATP, 20 ng of cdk4, 1 μg of retinoblastoma, and appropriate dilutions of a compound of the present invention. All components except the ATP were added to the wells, and the plate was placed on a plate mixer for 2 minutes. The reaction was started by adding [^32P]ATP and the plate was incubated at 25° C. for 15 minutes. The reaction was terminated by addition of 0.1 mL of 20% trichloroacetic acid (TCA). The plate was kept at 4° C. for at least 1 hour to allow the substrate to precipitate. The wells were then washed five times with 0.2 mL of 10% TCA and ^32P incorporation was determined with a beta plate counter (Wallac Inc., Gaithersburg, Md.).

cdk2/cyclinE = cdk2/cyclinE (Homo sapiens, UniProt P24941); assay: cdk2/cyclinE kinase assay; format: biochemical; settings: 32P incorporation into retinoblastoma, 25° C., 15 minutes; read-out: Cdk2E IC50
Procedure: as §1

cdk2/A = cdk2/A (Homo sapiens, UniProt P24941); assay: cdk2/A kinase assay; format: biochemical; settings: 32P incorporation into retinoblastoma, 25° C., 15 minutes; read-out: Cdk2A IC50
Procedure: as §1

[1] = 25 μM ATP, retinoblastoma substrate, 25° C., 15 minutes, read-out: Cdk4 IC50

cdc2/cyclinB, sequence (P06493 whole entry, species assumed): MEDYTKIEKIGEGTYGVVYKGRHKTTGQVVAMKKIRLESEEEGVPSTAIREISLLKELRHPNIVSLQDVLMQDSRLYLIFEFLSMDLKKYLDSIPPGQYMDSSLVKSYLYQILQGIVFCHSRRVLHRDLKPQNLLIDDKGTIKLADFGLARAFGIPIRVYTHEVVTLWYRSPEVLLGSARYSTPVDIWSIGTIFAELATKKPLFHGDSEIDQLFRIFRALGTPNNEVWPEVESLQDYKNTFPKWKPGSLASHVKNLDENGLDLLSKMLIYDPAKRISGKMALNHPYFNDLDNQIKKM
cdc2/cyclinB, sequence (P14635 whole entry partner, species assumed): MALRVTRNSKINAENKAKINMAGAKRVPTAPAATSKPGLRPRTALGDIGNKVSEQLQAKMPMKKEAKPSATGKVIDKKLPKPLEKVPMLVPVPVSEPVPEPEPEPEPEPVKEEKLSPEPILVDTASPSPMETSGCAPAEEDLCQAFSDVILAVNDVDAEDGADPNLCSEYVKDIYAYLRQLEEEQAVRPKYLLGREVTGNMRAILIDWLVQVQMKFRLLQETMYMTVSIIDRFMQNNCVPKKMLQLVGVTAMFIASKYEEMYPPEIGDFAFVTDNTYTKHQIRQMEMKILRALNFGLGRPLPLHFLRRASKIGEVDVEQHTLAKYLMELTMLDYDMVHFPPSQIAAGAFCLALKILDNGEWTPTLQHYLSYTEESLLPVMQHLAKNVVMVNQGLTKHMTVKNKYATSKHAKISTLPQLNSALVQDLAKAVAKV

Row | IC50 (cdk4/D; [1]) [nM] | Molecule | melting point | IC50 (cdc2/cyclinB) [nM] | IC50 (cdk2/cyclinE) [nM] | IC50 (cdk2/A) [nM] | IC50 (cdk4/D) [nM]
1 | 85 | COc1ccc2cnc(Nc3ccc(N4CCCCC4)c(F)c3)nc2c1C1CCCC1 [Example 49, (8-Cyclopentyl-7-methoxy-quinazolin-2-yl)-(3-Fluoro-4-piperidin-1-yl-phenyl)-amine] | 200 to 201 °C | > 5000 | 8000 |  | 
2 | 70 | COc1ccc2cnc(Nc3ccc(N4CCOCC4)c(F)c3)nc2c1C1CCCC1 [Example 43, (8-Cyclopentyl-7-methoxy-quinazolin-2-yl)-(3-fluoro-4-morpholin-4-yl-phenyl)-amine] | 252 to 253 °C | > 5000 | > 5000 | 966 | 
3 | 63 | COc1ccc2cnc(Nc3ccc(N4CCN(C(=O)OC(C)(C)C)CC4)cc3)nc2c1C(C)C [Example 25, 4-[4-(8-Isopropyl-7-methoxy-quinazolin-2-ylamino)-phenyl]-piperazine-1-carboxylic Acid Tert-butyl Ester] | 173 to 175 °C | 10200 | 10000 | 1620 | 
4 |  | COc1ccc2cnc(Nc3ccc(N4CCNCC4)cc3)nc2c1C(C)C [Example 34, (8-Isopropyl-7-methoxy-quinazolin-2-yl)-(4-piperazin-1-yl-phenyl)-amine] |  | 506 | 1200 | 185 | 16
5 |  | COc1ccc2cnc(Nc3ccc(N4CCOCC4)cc3)nc2c1C1CCCC1 [Example 44, (8-Cyclopentyl-7-methoxy-quinazolin-2-yl)-(4-morpholin-4-yl-phenyl)-amine] | 243 to 244 °C | 1590 | 650 | 383 | 18
6 |  | COc1ccc2cnc(Nc3ccc(N4CCCC4)cc3)nc2c1C1CCCC1 [Example 24, (8-Cyclopentyl-7-methoxy-quinazolin-2-yl)-(4-pyrrolidin-1-yl-phenyl)-amine] | 240 to 242 °C | > 5000 |  |  | 1750
7 |  | COc1ccc2cnc(Nc3ccc(N4CCOCC4)cc3)nc2c1C(C)C [Example 39, (8-Isopropyl-7-methoxy-quinazolin-2-yl)-(4-morpholin-4-yl-phenyl)-amine] |  | 1970 | 4400 | 665 | 52
8 |  | COc1ccc2cnc(Nc3ccccc3)nc2c1C(C)C [Example 19, (8-Isopropyl-7-methoxy-quinazolin-2-yl)-phenyl-amine] | 172 to 173 °C | 1040 | 1080 | 253 | 125
9 | 51 | COc1ccc2cnc(Nc3ccc(N4CCN(C(=O)OC(C)(C)C)CC4)cc3)nc2c1C1CCCC1 [Example 26, 4-[4-(8-Cyclopentyl-7-methoxy-quinazolin-2-ylamino)-phenyl]-piperazine-1-carboxylic Acid Tert-butyl Ester] | 183 to 184 °C | 4200 |  | 646 | 
10 |  | COc1ccc2cnc(Nc3ccc(N4CCN(C(=O)CN)CC4)cc3)nc2c1C1CCCC1 [Example 40, 2-Amino-1-{4-[4-(8-cyclopentyl-7-methoxy-quinazolin-2-ylamino)-phenyl]-piperazin-1-yl}-ethanone] | 202 °C | 270 | 450 | 95 | 2
11 |  | COc1ccc2cnc(Nc3ccc(N4CCCCC4)cc3)nc2c1C1CCCC1 [Example 23, (8-Cyclopentyl-7-methoxy-quinazolin-2-yl)-(4-piperidin-1-yl-phenyl)-amine] | 212 to 214 °C | > 5000 | > 5000 | 384 | 11
12 |  | COc1ccc2cnc(Nc3ccc(N4CCN(C(C)=O)CC4)cc3)nc2c1C(C)C [Example 33, 1-{4-[4-(8-Isopropyl-7-methoxy-quinazolin-2-ylamino)-phenyl]-piperazin-1-yl}-ethanone] | 197 to 198 °C |  | 900 |  | 25
13 | 1500 | COc1ccc2cnc(Nc3ccc(F)c(C)c3)nc2c1C(C)C [Example 46, (4-Fluoro-3-methyl-phenyl)-(8-isopropyl-7-methoxy-quinazolin-2-yl)-amine] | 169 to 171 °C | 1200 | 1200 | 246 | 
14 |  | COc1ccc2cnc(Nc3ccc(N4CCN(C(=O)C(N)CC(C)C)CC4)cc3)nc2c1C1CCCC1 (centres unmarked) [Example 42, 2-Amino-1-{4-[4-(8-cyclopentyl-7-methoxy-quinazolin-2-ylamino)-phenyl]-piperazin-1-yl}-4-methyl-pentan-1-one] | 130 to 132 °C | 333 | 500 | 103 | 
15 |  | COc1ccc2cnc(Nc3ccc(N4CCNCC4)c(F)c3)nc2c1C1CCCC1 [Example 50, (8-Cyclopentyl-7-methoxy-quinazolin-2-yl)-(3-fluoro-4-piperazin-1-yl-phenyl)-amine] | 228 to 229 °C | 214 | 300 | 62 | 4
16 |  | COc1ccc2cnc(Nc3ccc(N4CCOCC4)c(F)c3)nc2c1C(C)C [Example 38, (3-Fluoro-4-morpholin-4-yl-phenyl)-(8-isopropyl-7-methoxy-quinazolin-2-yl)-amine] | 202 to 203 °C | 1230 | 2750 | 451 | 
17 | 2400 | COc1ccc2cnc(Nc3ccc(F)c(C)c3)nc2c1C1CCCC1 [Example 48, (8-Cyclopentyl-7-methoxy-quinazolin-2-yl)-(4-fluoro-3-methyl-phenyl)-amine] | 208 to 209 °C | 1170 | 2200 | 574 | 
18 |  | CC(C)c1c(O)ccc2cnc(Nc3ccccc3)nc12 [Example 29, 8-Isopropyl-2-phenylamino-quinazolin-7-ol] | 103 to 104 °C | 813 | 550 | 250 | 325
19 |  | COc1ccc2cnc(Nc3ccccc3)nc2c1C1CCCC1 [Example 17, (8-Cyclopentyl-7-methoxy-quinazolin-2-yl)-phenyl-amine] | 187 to 188 °C |  |  |  | 
20 |  | COc1ccc2cnc(Nc3ccc(N4CCN(C(C)=O)CC4)cc3)nc2c1C1CCCC1 [Example 20, 1-{4-[4-(8-Cyclopentyl-7-methoxy-quinazolin-2-ylamino)-phenyl]-piperazin-1-yl}-ethanone] | 247 to 249 °C | > 5000 | 265 | 50 | 2
21 |  | COc1ccc2cnc(Nc3ccc(N4CCCCC4)cc3)nc2c1C(C)C [Example 21, (8-Isopropyl-7-methoxy-quinazolin-2-yl)-(4-piperidin-1-yl-phenyl)-amine] | 166 to 167 °C | > 5000 | 3100 | 410 | 52
22 | 275 | COc1ccc2cnc(Nc3ccc(N4CCC(NC(=O)OC(C)(C)C)C4)cc3)nc2c1C1CCCC1 (centres unmarked) [Example 45, {1-[4-(8-Cyclopentyl-7-methoxy-quinazolin-2-ylamino)-phenyl]-pyrrolidin-3-yl}-carbamic Acid Tert-butyl Ester] | 157 °C (dec.) | > 1700 | 6900 | 2390 | 
23 |  | COc1ccc2cnc(Nc3ccc(N4CCC(N)C4)cc3)nc2c1C(C)C (centres unmarked) [Example 37, [4-(3-Amino-pyrrolidin-1-yl)-phenyl]-(8-isopropyl-7-methoxy-quinazolin-2-yl)-amine] |  | 1300 | 2550 | 296 | 11

Row | Molecule | IC50 (cdk4/D; [1]) [nM] | melting point | IC50 (cdc2/cyclinB) [nM] | IC50 (cdk2/cyclinE) [nM] | IC50 (cdk2/A) [nM] | IC50 (cdk4/D) [nM]
24 | (8-Isopropyl-7-methoxy-quinazolin-2-yl)-(4′-methoxy-biphenyl-4-yl)-amine [Example 36] | 225 |  |  | > 5000 |  | 
25 | (8-Isopropyl-7-methoxy-quinazolin-2-yl)-(4-piperidin-1-yl-phenyl)-amine [Example 47] | 75 |  | 1070 | 4100 | 264 | 
26 | COc1ccc2cnc(Nc3ccc(N4CCNCC4)cc3)nc2c1C1CCCC1 [Example 27, (8-Cyclopentyl-7-methoxy-quinazolin-2-yl)-(4-piperazin-1-yl-phenyl)-amine] | 1 |  | 132 | 250 | 28 | 
